Test results as given in the NIST ThermoML archive (doi:10.1016/j.fluid.2017.12.010).

Test: xn = mol fraction of the nth substance listed
Conditions: Liquid, Vibrating tube method

CCCCCCCCCCCC [dodecane] + CCCCCCCCCC
Conditions	mass density [kg/m3]
342.94 K, 80000 kPa, x2 = 0.2297	765
342.94 K, 80000 kPa, x2 = 0.6433	758
342.94 K, 100000 kPa, x2 = 0.2297	774
342.94 K, 100000 kPa, x2 = 0.6433	768
342.95 K, 100 kPa, x2 = 0.7841	698
342.95 K, 1000 kPa, x2 = 0.7841	699
342.96 K, 5000 kPa, x2 = 0.7841	703
342.97 K, 10000 kPa, x2 = 0.7841	708
342.97 K, 20000 kPa, x2 = 0.7841	717
342.98 K, 30000 kPa, x2 = 0.7841	724
342.98 K, 40000 kPa, x2 = 0.7841	732
342.99 K, 60000 kPa, x2 = 0.7841	744
343 K, 80000 kPa, x2 = 0.7841	756
343 K, 99990 kPa, x2 = 0.7841	766
352.58 K, 100 kPa, x2 = 0	707
352.58 K, 1000 kPa, x2 = 0	708
352.58 K, 5000 kPa, x2 = 0	712
352.58 K, 10000 kPa, x2 = 0	716
352.58 K, 20000 kPa, x2 = 0	725
352.58 K, 30000 kPa, x2 = 0	733
352.58 K, 40000 kPa, x2 = 0	740
352.58 K, 50000 kPa, x2 = 0	747
352.58 K, 60000 kPa, x2 = 0	753
352.58 K, 70000 kPa, x2 = 0	759
352.58 K, 80000 kPa, x2 = 0	764
352.58 K, 90000 kPa, x2 = 0	769
352.58 K, 100000 kPa, x2 = 0	774
352.73 K, 100 kPa, x2 = 0.2297	702
352.74 K, 1000 kPa, x2 = 0.2297	703
352.74 K, 5000 kPa, x2 = 0.2297	707
352.75 K, 10000 kPa, x2 = 0.2297	712
352.75 K, 20000 kPa, x2 = 0.2297	721
352.75 K, 30000 kPa, x2 = 0.2297	729
352.75 K, 40000 kPa, x2 = 0.2297	736
352.76 K, 60000 kPa, x2 = 0.2297	749
352.76 K, 80000 kPa, x2 = 0.2297	760
352.76 K, 100000 kPa, x2 = 0.2297	770
352.78 K, 100 kPa, x2 = 0.6433	694
352.78 K, 1000 kPa, x2 = 0.6433	695
352.78 K, 5000 kPa, x2 = 0.6433	699
352.78 K, 10000 kPa, x2 = 0.6433	704
352.78 K, 20000 kPa, x2 = 0.6433	713
352.78 K, 30000 kPa, x2 = 0.6433	721
352.78 K, 40000 kPa, x2 = 0.6433	729
352.79 K, 5000 kPa, x2 = 0.4436	703
352.79 K, 60000 kPa, x2 = 0.6433	742
352.79 K, 79990 kPa, x2 = 0.6433	754
352.79 K, 100000 kPa, x2 = 0.6433	764
352.8 K, 1000 kPa, x2 = 0.4436	699
352.8 K, 10000 kPa, x2 = 0.4436	708
352.8 K, 20000 kPa, x2 = 0.4436	717
352.81 K, 100 kPa, x2 = 0.4436	698
352.81 K, 1000 kPa, x2 = 0.7841	692
352.81 K, 30000 kPa, x2 = 0.4436	725
352.81 K, 40000 kPa, x2 = 0.4436	733
352.81 K, 60000 kPa, x2 = 0.4436	746
352.81 K, 99990 kPa, x2 = 0.4436	767
352.82 K, 100 kPa, x2 = 0.7841	691
352.82 K, 80000 kPa, x2 = 0.4436	757
352.83 K, 5000 kPa, x2 = 0.7841	696
352.84 K, 10000 kPa, x2 = 0.7841	701
352.84 K, 20000 kPa, x2 = 0.7841	711
352.85 K, 30000 kPa, x2 = 0.7841	719
352.85 K, 40000 kPa, x2 = 0.7841	726
352.85 K, 60000 kPa, x2 = 0.7841	740
352.85 K, 80000 kPa, x2 = 0.7841	751
352.85 K, 100000 kPa, x2 = 0.7841	762
362.48 K, 5000 kPa, x2 = 0	704
362.48 K, 10000 kPa, x2 = 0	709
362.48 K, 20000 kPa, x2 = 0	718
362.48 K, 30000 kPa, x2 = 0	726
362.48 K, 50000 kPa, x2 = 0	741
362.48 K, 80000 kPa, x2 = 0	759
362.48 K, 90000 kPa, x2 = 0	764
362.49 K, 100 kPa, x2 = 0	699
362.49 K, 1000 kPa, x2 = 0	700
362.49 K, 40000 kPa, x2 = 0	734
362.49 K, 60000 kPa, x2 = 0	747
362.49 K, 70000 kPa, x2 = 0	753
362.49 K, 100000 kPa, x2 = 0	769
362.57 K, 100 kPa, x2 = 0.2297	695
362.57 K, 1000 kPa, x2 = 0.2297	696
362.58 K, 5000 kPa, x2 = 0.2297	700
362.58 K, 10000 kPa, x2 = 0.2297	705
362.58 K, 20000 kPa, x2 = 0.2297	714
362.58 K, 30000 kPa, x2 = 0.2297	722
362.59 K, 40000 kPa, x2 = 0.2297	730
362.59 K, 60000 kPa, x2 = 0.2297	743
362.59 K, 80000 kPa, x2 = 0.2297	755
362.59 K, 100000 kPa, x2 = 0.2297	765
362.61 K, 100 kPa, x2 = 0.4436	690
362.61 K, 1000 kPa, x2 = 0.4436	691
362.62 K, 100 kPa, x2 = 0.6433	686
362.62 K, 1000 kPa, x2 = 0.6433	687
362.62 K, 5000 kPa, x2 = 0.4436	696
362.62 K, 5000 kPa, x2 = 0.6433	691
362.62 K, 10000 kPa, x2 = 0.4436	701
362.62 K, 10000 kPa, x2 = 0.6433	697
362.62 K, 20000 kPa, x2 = 0.4436	710
362.62 K, 30000 kPa, x2 = 0.4436	719
362.62 K, 40000 kPa, x2 = 0.4436	726
362.62 K, 60000 kPa, x2 = 0.4436	740
362.62 K, 80000 kPa, x2 = 0.4436	752
362.63 K, 20000 kPa, x2 = 0.6433	706
362.63 K, 30000 kPa, x2 = 0.6433	715
362.63 K, 40000 kPa, x2 = 0.6433	722
362.63 K, 60000 kPa, x2 = 0.6433	736
362.63 K, 80000 kPa, x2 = 0.6433	748
362.63 K, 99990 kPa, x2 = 0.6433	758
362.63 K, 100000 kPa, x2 = 0.4436	762
362.64 K, 100 kPa, x2 = 0.7841	682
362.64 K, 1000 kPa, x2 = 0.7841	683
362.65 K, 5000 kPa, x2 = 0.7841	688
362.65 K, 10000 kPa, x2 = 0.7841	693
362.66 K, 20000 kPa, x2 = 0.7841	703
362.66 K, 30000 kPa, x2 = 0.7841	712
362.66 K, 40000 kPa, x2 = 0.7841	719
362.66 K, 60000 kPa, x2 = 0.7841	733
362.66 K, 80000 kPa, x2 = 0.7841	745
362.66 K, 100010 kPa, x2 = 0.7841	756
